Results reported in publication PMC9513367 (2022).
Values belong to the compound of their own block, whether it stands above or below them.

Assays:
[1] = system: Apt-T2 (DNA, aptamer) CGAGGGACGTTGCCAACGATAACGTCGTTGGAT; experiment: AuNP colorimetric (A650/A520); conditions: NaCl 36.7 mM added, water, room temperature
[2] = system: Apt-M13 (DNA, aptamer) CGGGGGACGTTGCCAACGGTAACGTCGTTGGAT; experiment: AuNP colorimetric (A650/A520); conditions: NaCl 36.7 mM added, water, room temperature
[3] = system: Apt1 (DNA, aptamer) ACACGACGAGGGACGAGGAGTACTTGCCAACGATAACGTCGTTGGATCTGTCTGTGCCC; experiment: AuNP colorimetric (A650/A520); conditions: NaCl 36.7 mM added, water, room temperature
[4] = system: Apt-M13 (DNA, aptamer) CGGGGGACGTTGCCAACGGTAACGTCGTTGGAT; experiment: fluorescence enhancement of dye; conditions: water, room temperature; aptamer 50 nM stock, 1X SGI
[5] = system: Apt-T1 (DNA, aptamer) CGAGGGACGAGGAGTACTTGCCAACGATAACGTCGTTGGAT; experiment: AuNP colorimetric (A650/A520); conditions: NaCl 36.7 mM added, water, room temperature
[6] = system: FAM-Apt-M13 (DNA, aptamer) CGGGGGACGTTGCCAACGGTAACGTCGTTGGAT; experiment: graphene oxide fluorescence, saturation fit; conditions: water, 37 °C 2 h; aptamer 10-250 nM varied, DEX 1.5 μM fixed; GO:aptamer mass 200:1
[7] = system: Apt-T3 (DNA, aptamer) TTGCCAACGATAACGTCGTTGGAT; experiment: AuNP colorimetric (A650/A520); conditions: NaCl 36.7 mM added; water, room temperature; DEX titration
[8] = system: Apt-M12 (DNA, aptamer) CGAGGGACGTTGCCAACGGTAACGTGGTTGGAT; experiment: AuNP colorimetric (A650/A520); conditions: NaCl 36.7 mM added; water, room temperature; DEX titration
[9] = system: FAM-Apt1 (DNA, aptamer) ACACGACGAGGGACGAGGAGTACTTGCCAACGATAACGTCGTTGGATCTGTCTGTGCCC; experiment: graphene oxide fluorescence, saturation fit; conditions: water, 37 °C 2 h; aptamer 10-250 nM varied, DEX 1.5 μM fixed; GO:aptamer mass 200:1
[10] = system: Apt-M9 (DNA, aptamer) CGAGGGACGTTGGCAACGGTAACGTCGTTGGAT; experiment: AuNP colorimetric (A650/A520); conditions: NaCl 36.7 mM added; water, room temperature; DEX titration
[11] = system: Apt-M11 (DNA, aptamer) CGAGGGACGTTGCCAACGGTAAGGTCGTTGGAT; experiment: AuNP colorimetric (A650/A520); conditions: NaCl 36.7 mM added; water, room temperature; DEX titration
[12] = system: Apt-M15 (DNA, aptamer) CGAGGGACGTTGCCAACGATAAGGTGGTTGGAT; experiment: AuNP colorimetric (A650/A520); conditions: NaCl 36.7 mM added; water, room temperature; DEX titration

SMILES: O=C(N[C@H](CO)[C@H](O)c1ccc([N+](=O)[O-])cc1)C(Cl)Cl
binding ([1]; 100 nmol/mL analog tested): no | binding ([2]; 50 nmol/mL analog tested): no | binding ([3]; 100 nmol/mL analog tested): no

SMILES: CCCN(CCCN(C)C)c1cc(C=C2Sc3ccccc3N2C)c2ccccc2[n+]1-c1ccccc1
binding [4]: yes

SMILES: CCCC1O[C@@H]2C[C@H]3[C@@H]4CCC5=CC(=O)C=C[C@]5(C)[C@H]4[C@@H](O)C[C@]3(C)[C@]2(C(=O)CO)O1 (stereo partly shown)
binding ([1]; 100 nmol/mL analog tested): no | binding ([5]; 100 nmol/mL): yes | binding ([2]; 50 nmol/mL analog tested): no | binding ([3]; 100 nmol/mL analog tested): no

SMILES: C[C@@H]1C[C@H]2[C@@H]3CCC4=CC(=O)C=C[C@]4(C)[C@@]3(F)[C@@H](O)C[C@]2(C)[C@@]1(O)C(=O)CO
Kd [6]: 200 ± 93 nM | binding [7]: yes | binding ([1]; DEX titration): yes | binding [8]: yes | Kd [9]: 441 ± 180 nM | binding ([5]; DEX titration): yes | binding [10]: yes | binding ([2]; DEX titration): yes | binding ([3]; DEX titration): yes | binding [11]: yes | binding [12]: yes

More lines, now with the values ahead:

binding ([1]; 100 nmol/mL analog tested): no | binding ([2]; 50 nmol/mL analog tested): no | binding ([3]; 100 nmol/mL analog tested): no
SMILES: CC(=O)OCC(=O)[C@@]1(O)CC[C@H]2[C@@H]3CCC4=CC(=O)C=C[C@]4(C)[C@H]3C(=O)C[C@@]21C

binding ([1]; 100 nmol/mL analog tested): no | binding ([2]; 50 nmol/mL analog tested): no | binding ([3]; 100 nmol/mL analog tested): no
SMILES: C[C@]12CCC(=O)C=C1CC[C@@H]1[C@@H]2[C@@H](O)C[C@@]2(C)[C@H]1CC[C@]2(O)C(=O)CO
